In PubChem BioAssay AID2060610 (Molecular Pharmacology Branch, DTP, NCI, 2025):
Values joined by “and” are separate entries in the source; they are usually repeats but may differ in a detail not shown here. Equal entries are not always repeated. Blank lines part the entries; values can stand above or below the compound they belong to.

System: 616215-338-R-J1-PDC complex spheroids, viability % test/control
Assay: Anticancer human tumor 616215-338-R-J1-PDC patient-derived colon adenocarcinoma cell line growth inhibition [CLK]
Conditions: for viability, T/C: stronger effect = lower value
In short: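 Patient-derived tumor cells grown as complex spheroids with HUVEC endothelial cells and mesenchymal stem cells, treated with drug combinations. Concentrations descend in half-log steps from near clinical Cmax, or from 10 microM if Cmax unknown.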

[1] = curve of first compound, second compound 0.0316 µM
[2] = curve of first compound, second compound 0.1 µM
[3] = curve of first compound, second compound 0.316 µM
[4] = curve of first compound, second compound 1 µM
[5] = curve of first compound, second compound 3.16 µM
[6] = curve of first compound, second compound 10 µM
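Further: spheroids exposed to agents for 7 days.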
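Wherever viability, T/C is given: 100% = DMSO vehicle wells.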

Compound: COC1C=CCC(C)C(C)S(=O)(=O)NC(=O)c2ccc3c(c2)N(CC2CCC21)CC1(CCCc2cc(Cl)ccc21)CO3 (stereo unspecified) + CN1CCN(c2cc(C(=O)Nc3cc4cc(-c5cnn(C)c5)ccc4cn3)ccn2)CC1
IC50 [1]: 2360 nM
IC50 [2]: 2870 nM
IC50 [3]: < 31.6 nM
IC50 [4]: < 31.6 nM
IC50 [5]: < 31.6 nM
IC50 [6]: < 31.6 nM
viability, T/C (second compound 0.0316 µM, first compound 0.0316 µM): 45.7%
viability, T/C (second compound 0.0316 µM, first compound 0.1 µM): 32.5%
viability, T/C (second compound 0.0316 µM, first compound 0.316 µM): 111%
viability, T/C (second compound 0.0316 µM, first compound 1 µM): 106%
viability, T/C (second compound 0.0316 µM, first compound 3.16 µM): 41.9%
viability, T/C (second compound 0.0316 µM, first compound 10 µM): 0.01%
viability, T/C (second compound 0.1 µM, first compound 0.0316 µM): 41.4%
viability, T/C (second compound 0.1 µM, first compound 0.1 µM): 44.4%
viability, T/C (second compound 0.1 µM, first compound 0.316 µM): 122%
viability, T/C (second compound 0.1 µM, first compound 1 µM): 116%
viability, T/C (second compound 0.1 µM, first compound 3.16 µM): 47.2%
viability, T/C (second compound 0.1 µM, first compound 10 µM): 0.01%
viability, T/C (second compound 0.316 µM, first compound 0.0316 µM): 9.08%
viability, T/C (second compound 0.316 µM, first compound 0.1 µM): 9.53%
viability, T/C (second compound 0.316 µM, first compound 0.316 µM): 21.3%
viability, T/C (second compound 0.316 µM, first compound 1 µM): 28.6%
viability, T/C (second compound 0.316 µM, first compound 3.16 µM): 20%
viability, T/C (second compound 0.316 µM, first compound 10 µM): 0.01%
viability, T/C (second compound 1 µM, first compound 0.0316 µM): 0.68%
viability, T/C (second compound 1 µM, first compound 0.1 µM): 0.08%
viability, T/C (second compound 1 µM, first compound 0.316 µM): 0.17%
viability, T/C (second compound 1 µM, first compound 1 µM): 0.14%
viability, T/C (second compound 1 µM, first compound 3.16 µM): 0.94%
viability, T/C (second compound 1 µM, first compound 10 µM): 0.01%
viability, T/C (second compound 3.16 µM, first compound 0.0316 µM): 0.04%
viability, T/C (second compound 3.16 µM, first compound 0.1 µM): 0.07%
viability, T/C (second compound 3.16 µM, first compound 0.316 µM): 0.18%
viability, T/C (second compound 3.16 µM, first compound 1 µM): 0.16%
viability, T/C (second compound 3.16 µM, first compound 3.16 µM): 0.18%
viability, T/C (second compound 3.16 µM, first compound 10 µM): 0.01%
viability, T/C (second compound 10 µM, first compound 0.0316 µM): 0.08%
viability, T/C (second compound 10 µM, first compound 0.1 µM): 0.09%
viability, T/C (second compound 10 µM, first compound 0.316 µM): 0.24%
viability, T/C (second compound 10 µM, first compound 1 µM): 0.27%
viability, T/C (second compound 10 µM, first compound 3.16 µM): 0.33%
viability, T/C (second compound 10 µM, first compound 10 µM): 0.01%

IC50 (curve of compound): 562 nM and 668 nM
Compound: NC(=O)C(=Cn1cnc(-c2cc(C(F)(F)F)cc(C(F)(F)F)c2)n1)c1cncnc1
viability, T/C (compound 0.00949 µM): 99.3% and 94.8%
viability, T/C (compound 0.03 µM): 103% and 87.1%
viability, T/C (compound 0.0949 µM): 103% and 94.1%
viability, T/C (compound 0.3 µM): 66.9% and 87.5%
viability, T/C (compound 0.949 µM): 35.8% and 33.5%
viability, T/C (compound 3 µM): 15% and 17.6%

Compound: CC(C)CC(NC(=O)C(Cc1ccccc1)NC(=O)c1cnccn1)B(O)O (stereo unspecified) + CN1CCN(c2cc(C(=O)Nc3cc4cc(-c5cnn(C)c5)ccc4cn3)ccn2)CC1
IC50 [1]: 5.54 nM
IC50 [2]: 5.8 nM
IC50 [3]: < 0.949 nM
IC50 [4]: < 0.949 nM
IC50 [5]: < 0.949 nM
IC50 [6]: < 0.949 nM
viability, T/C (second compound 0.0316 µM, first compound 0.000949 µM): 105%
viability, T/C (second compound 0.0316 µM, first compound 0.003 µM): 107%
viability, T/C (second compound 0.0316 µM, first compound 0.00949 µM): 1.23%
viability, T/C (second compound 0.0316 µM, first compound 0.03 µM): 0.23%
viability, T/C (second compound 0.0316 µM, first compound 0.0949 µM): 0.16%
viability, T/C (second compound 0.0316 µM, first compound 0.3 µM): 1.94%
viability, T/C (second compound 0.1 µM, first compound 0.000949 µM): 121%
viability, T/C (second compound 0.1 µM, first compound 0.003 µM): 116%
viability, T/C (second compound 0.1 µM, first compound 0.00949 µM): 0.22%
viability, T/C (second compound 0.1 µM, first compound 0.03 µM): 0.19%
viability, T/C (second compound 0.1 µM, first compound 0.0949 µM): 0.18%
viability, T/C (second compound 0.1 µM, first compound 0.3 µM): 0.18%
viability, T/C (second compound 0.316 µM, first compound 0.000949 µM): 29.7%
viability, T/C (second compound 0.316 µM, first compound 0.003 µM): 4.76%
viability, T/C (second compound 0.316 µM, first compound 0.00949 µM): 0.19%
viability, T/C (second compound 0.316 µM, first compound 0.03 µM): 0.14%
viability, T/C (second compound 0.316 µM, first compound 0.0949 µM): 0.16%
viability, T/C (second compound 0.316 µM, first compound 0.3 µM): 0.13%
viability, T/C (second compound 1 µM, first compound 0.000949 µM): 0.15%
viability, T/C (second compound 1 µM, first compound 0.003 µM): 0.17%
viability, T/C (second compound 1 µM, first compound 0.00949 µM): 0.34%
viability, T/C (second compound 1 µM, first compound 0.03 µM): 0.1%
viability, T/C (second compound 1 µM, first compound 0.0949 µM): 0.1%
viability, T/C (second compound 1 µM, first compound 0.3 µM): 1.57%
viability, T/C (second compound 3.16 µM, first compound 0.000949 µM): 0.09%
viability, T/C (second compound 3.16 µM, first compound 0.003 µM): 0.13%
viability, T/C (second compound 3.16 µM, first compound 0.00949 µM): 0.12%
viability, T/C (second compound 3.16 µM, first compound 0.03 µM): 0.08%
viability, T/C (second compound 3.16 µM, first compound 0.0949 µM): 1.71%
viability, T/C (second compound 3.16 µM, first compound 0.3 µM): 0.13%
viability, T/C (second compound 10 µM, first compound 0.000949 µM): 0.08%
viability, T/C (second compound 10 µM, first compound 0.003 µM): 0.13%
viability, T/C (second compound 10 µM, first compound 0.00949 µM): 0.15%
viability, T/C (second compound 10 µM, first compound 0.03 µM): 0.11%
viability, T/C (second compound 10 µM, first compound 0.0949 µM): 2.22%
viability, T/C (second compound 10 µM, first compound 0.3 µM): 0.2%
